Source: US10188634B2, “3-(3H-imidazo[4,5-C]pyridin-2-yl)-1 H-pyrazolo[4,3-B]pyridines and therapeutic uses thereof” (Samumed, LLC, priority 2015, dated 2019)

Key:
[1] = test system: Wnt activity (Sp5-Luc reporter, human Sp5 promoter with eight TCF/LEF binding sites) in SW480 colon carcinoma cells; test: Screening assay for Wnt activity: Sp5-Luc reporter gene assay in SW480 cells; format: cell-based; details: for inhibition at 10 µM: read-out: percent inhibition at 10 μM (given for EC50 of >10 μM); for EC50: 10-point dose-response starting from 10 μM, overnight incubation
Method in brief: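 SW480 cells stably carrying Sp5-Luc reporter (eight TCF/LEF sites) plated at 4,000/well in 1% FBS medium with compound (10-point 1:3 series from 10 μM, 0.1% DMSO) overnight at 37 °C. BrightGlo luminescence normalized to DMSO; EC50 by four-parameter fit, else % inhibition at 10 μM.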

[2] = test system: IL-6 in THP-1 cells; test: Inhibition of IL-6 in LPS-stimulated THP-1 human monocyte cells (HTRF); format: cell-based; details: IL-6 HTRF; for EC50: 500 ng/mL LPS, 22 hours; for inhibition at 10 µM: LPS, read-out: percent inhibition in brackets (given for EC50 >10 μM)
Method in brief: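 THP-1 cells, serum-reduced (1% FBS) for 24 h, were exposed to compound (1:3, 10-point series from 10 μM; 0.1% DMSO) for 2 h, then 500 ng/mL LPS for 22 h at 37° C. Secreted IL-6 measured by HTRF (665/620 ratio), normalised to DMSO; EC50 by four-parameter fit, else % inhibition at 10 μM.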

With `NC1CN(c2cncc(-c3ccc4[nH]nc(-c5nc6c(-c7cccc(F)c7)cncc6[nH]5)c4n3)n2)C1` [Compound 482, 1-(6-(3-(7-(3-Fluorophenyl)-3H-imidazo[4,5-c]pyridin-2-yl)-1H-pyrazolo[4,3-b]pyridin-5-yl)pyrazin-2-yl)azetidin-3-amine] the inhibition at 10 µM [1] was 21%, the EC50 [1] was over 10 µM and the EC50 [2] was over 10 µM. It also gave an inhibition at 10 µM [2] of 40.8%.

`Fc1cccc(-c2cncc3[nH]c(-c4n[nH]c5ccc(-c6cncc(OC7CCNCC7)c6)nc45)nc23)c1` [Compound 484, 3-(7-(3-Fluorophenyl)-3H-imidazo[4,5-c]pyridin-2-yl)-5-(5-(piperidin-4-yloxy)pyridin-3-yl)-1H-pyrazolo[4,3-b]pyridine] gave an inhibition at 10 µM [1] of 24%, an EC50 [1] of over 10 µM and an EC50 [2] of over 10 µM. The inhibition at 10 µM [2] was 11.3%.

In the case of `Oc1cncc(-c2ccc3[nH]nc(-c4nc5c(-c6cccc(F)c6)cncc5[nH]4)c3n2)c1` [Compound 489, 5-(3-(7-(3-Fluorophenyl)-3H-imidazo[4,5-c]pyridin-2-yl)-1H-pyrazolo[4,3-b]pyridin-5-yl)pyridin-3-ol], the inhibition at 10 µM [1] is reported as 27%, the EC50 [1] is reported as over 10 µM and the EC50 [2] is reported as over 10 µM. The inhibition at 10 µM [2] was 43.3%.

Work on `Fc1cccc(-c2cncc3[nH]c(-c4n[nH]c5ccc(-c6cnccn6)nc45)nc23)c1` [Compound 492, 3-(7-(3-Fluorophenyl)-3H-imidazo[4,5-c]pyridin-2-yl)-5-(pyrazin-2-yl)-1H-pyrazolo[4,3-b]pyridine] yielded an inhibition at 10 µM [1] of 13%, an EC50 [1] of over 10 µM and an EC50 [2] of over 10 µM. The inhibition at 10 µM [2] was 24.5%.

`c1cncc(-c2cncc3[nH]c(-c4n[nH]c5ccc(-c6cncc(OC7CCCCC7)c6)nc45)nc23)c1` [Compound 531, 5-(5-(Cyclohexyloxy)pyridin-3-yl)-3-(7-(pyridin-3-yl)-3H-imidazo[4,5-c]pyridin-2-yl)-1H-pyrazolo[4,3-b]pyridine] showed an inhibition at 10 µM [1] of 24.3%, an EC50 [1] of over 10 µM and an EC50 [2] of 0.371 µM.

`Oc1cncc(-c2ccc3[nH]nc(-c4nc5c(-c6cccnc6)cncc5[nH]4)c3n2)c1` [Compound 537, 5-(3-(7-(Pyridin-3-yl)-3H-imidazo[4,5-c]pyridin-2-yl)-1H-pyrazolo[4,3-b]pyridin-5-yl)pyridin-3-ol] was tested, and the inhibition at 10 µM [1] was 9.9%, the EC50 [1] was over 10 µM and the EC50 [2] was 0.414 µM.

In the case of `c1cc(-c2cncc3[nH]c(-c4n[nH]c5ccc(-c6cncc(OC7CCNCC7)c6)nc45)nc23)ccn1` [Compound 548, 5-(5-(Piperidin-4-yloxy)pyridin-3-yl)-3-(7-(pyridin-4-yl)-3H-imidazo[4,5-c]pyridin-2-yl)-1H-pyrazolo[4,3-b]pyridine], the inhibition at 10 µM [1] is reported as 16.1%, the EC50 [1] is reported as over 10 µM and the EC50 [2] is reported as over 10 µM. It also gave an inhibition at 10 µM [2] of 22.6%.

For `c1ccc(COc2cncc(-c3ccc4[nH]nc(-c5nc6c(-c7ccncc7)cncc6[nH]5)c4n3)c2)cc1` [Compound 554, 5-(5-(Benzyloxy)pyridin-3-yl)-3-(7-(pyridin-4-yl)-3H-imidazo[4,5-c]pyridin-2-yl)-1H-pyrazolo[4,3-b]pyridine], the inhibition at 10 µM [1] was 0%, the EC50 [1] was over 10 µM and the EC50 [2] was over 10 µM. For the same compound, the inhibition at 10 µM [2] was 50.3%.

`c1cc(-c2cncc3[nH]c(-c4n[nH]c5ccc(-c6cnccn6)nc45)nc23)ccn1` [Compound 556, 5-(Pyrazin-2-yl)-3-(7-(pyridin-4-yl)-3H-imidazo[4,5-c]pyridin-2-yl)-1H-pyrazolo[4,3-b]pyridine] was tested, and the inhibition at 10 µM [1] was 9.5%, the EC50 [1] was over 10 µM and the EC50 [2] was over 10 µM. The inhibition at 10 µM [2] was 0%.

Work on `Cn1cc(-c2ccc3[nH]nc(-c4nc5c(-c6cccs6)cncc5[nH]4)c3n2)cn1` [Compound 656, 5-(1-Methyl-1H-pyrazol-4-yl)-3-(7-(thiophen-2-yl)-3H-imidazo[4,5-c]pyridin-2-yl)-1H-pyrazolo[4,3-b]pyridine] yielded an inhibition at 10 µM [1] of 3%, an EC50 [1] of over 10 µM and an EC50 [2] of over 10 µM. It also gave an inhibition at 10 µM [2] of 14.8%.

Compound `CN(C)CCOc1cncc(-c2ccc3[nH]nc(-c4nc5c(-c6cccs6)cncc5[nH]4)c3n2)c1` [Compound 663, N,N-Dimethyl-2-((5-(3-(7-(thiophen-2-yl)-3H-imidazo[4,5-c]pyridin-2-yl)-1H-pyrazolo[4,3-b]pyridin-5-yl)pyridin-3-yl)oxy)ethan-1-amine] has an inhibition at 10 µM [1] of 46.7%, an EC50 [1] of over 10 µM and an EC50 [2] of over 10 µM. It also gave an inhibition at 10 µM [2] of 43.8%.

`Cc1ccc(-c2cncc3[nH]c(-c4n[nH]c5ccc(C6=CCNCC6)nc45)nc23)s1` [Compound 686, 3-(7-(5-Methylthiophen-2-yl)-3H-imidazo[4,5-c]pyridin-2-yl)-5-(1,2,3,6-tetrahydropyridin-4-yl)-1H-pyrazolo[4,3-b]pyridine] gave an inhibition at 10 µM [1] of 52.6%, an EC50 [1] of over 10 µM and an EC50 [2] of over 10 µM. It also gave an inhibition at 10 µM [2] of 23.8%.

`Cn1cc(-c2ccc3[nH]nc(-c4nc5c(-c6cc(F)cc(CNS(C)(=O)=O)c6)cncc5[nH]4)c3n2)cn1` [Compound 720, N-(3-Fluoro-5-(2-(5-(1-methyl-1H-pyrazol-4-yl)-1H-pyrazolo[4,3-b]pyridin-3-yl)-3H-imidazo[4,5-c]pyridin-7-yl)benzyl)methanesulfonamide] gave an inhibition at 10 µM [1] of 16.4%, an EC50 [1] of over 10 µM and an EC50 [2] of over 10 µM. The inhibition at 10 µM [2] was 44.7%.

Work on `CS(=O)(=O)NCc1cc(F)cc(-c2cncc3[nH]c(-c4n[nH]c5ccc(-c6cncc(NC(=O)CC7CCNCC7)c6)nc45)nc23)c1` [Compound 725, N-(5-(3-(7-(3-Fluoro-5-(methylsulfonamidomethyl)phenyl)-3H-imidazo[4,5-c]pyridin-2-yl)-1H-pyrazolo[4,3-b]pyridin-5-yl)pyridin-3-yl)-2-(piperidin-4-yl)acetamide] yielded an inhibition at 10 µM [1] of 11.2%, an EC50 [1] of over 10 µM and an EC50 [2] of over 10 µM. It also gave an inhibition at 10 µM [2] of 27.1%.

Work on `CN(C)CCNc1cc(F)cc(-c2cncc3[nH]c(-c4n[nH]c5ccc(-c6cncc(OCCN7CCCC7)c6)nc45)nc23)c1` [Compound 742, N^1-(3-Fluoro-5-(2-(5-(5-(2-(pyrrolidin-1-yl)ethoxy)pyridin-3-yl)-1H-pyrazolo[4,3-b]pyridin-3-yl)-3H-imidazo[4,5-c]pyridin-7-yl)phenyl)-N^2,N^2-dimethylethane-1,2-diamine] yielded an inhibition at 10 µM [1] of 17.1%, an EC50 [1] of over 10 µM and an EC50 [2] of 8.86 µM.

Compound `CN(C)CC(=O)Nc1cncc(-c2ccc3[nH]nc(-c4nc5c(-c6cccc(F)c6)cncc5[nH]4)c3n2)c1` [Compound 925, 2-(Dimethylamino)-N-(5-(3-(7-(3-fluorophenyl)-3H-imidazo[4,5-c]pyridin-2-yl)-1H-pyrazolo[4,3-b]pyridin-5-yl)pyridin-3-yl)acetamide] has an inhibition at 10 µM [1] of 23%, an EC50 [1] of over 10 µM and an EC50 [2] of over 10 µM. The inhibition at 10 µM [2] was 20.1%.

Compound `COc1cccc(-c2cncc3[nH]c(-c4n[nH]c5ccc(-c6cccnc6)nc45)nc23)c1` [Compound 949, 3-(7-(3-Methoxylphenyl)-3H-imidazo[4,5-c]pyridin-2-yl)-5-(pyridin-3-yl)-1H-pyrazolo[4,3-b]pyridine] has an inhibition at 10 µM [1] of 18.2%, an EC50 [1] of over 10 µM and an EC50 [2] of 0.682 µM.

`COc1cccc(-c2cncc3[nH]c(-c4n[nH]c5ccc(-c6cncc(NC(=O)Cc7ccccc7)c6)nc45)nc23)c1` [Compound 955, N-(5-(3-(7-(3-methoxylphenyl)-3H-imidazo[4,5-c]pyridin-2-yl)-1H-pyrazolo[4,3-b]pyridin-5-yl)pyridin-3-yl)-2-phenylacetamide] was tested, and the inhibition at 10 µM [1] was 21.5%, the EC50 [1] was over 10 µM and the EC50 [2] was over 10 µM. For the same compound, the inhibition at 10 µM [2] was 27.5%.

Work on `COc1cccc(-c2cncc3[nH]c(-c4n[nH]c5ccc(-c6cncc(NC(=O)CC(C)(C)C)c6)nc45)nc23)c1` [Compound 961, N-(5-(3-(7-(3-methoxylphenyl)-3H-imidazo[4,5-c]pyridin-2-yl)-1H-pyrazolo[4,3-b]pyridin-5-yl)pyridin-3-yl)-3,3-dimethylbutanamide] yielded an inhibition at 10 µM [1] of 0%, an EC50 [1] of over 10 µM and an EC50 [2] of over 10 µM. For the same compound, the inhibition at 10 µM [2] was 22.5%.

`COc1cccc(-c2cncc3[nH]c(-c4n[nH]c5ccc(-c6cncc(NC(=O)C7CCCCC7)c6)nc45)nc23)c1` [Compound 967, N-(5-(3-(7-(3-Methoxylphenyl)-3H-imidazo[4,5-c]pyridin-2-yl)-1H-pyrazolo[4,3-b]pyridin-5-yl)pyridin-3-yl)cyclohexanecarboxamide] showed an inhibition at 10 µM [1] of 0%, an EC50 [1] of over 10 µM and an EC50 [2] of over 10 µM. It also gave an inhibition at 10 µM [2] of 33.9%.

For `COc1cccc(-c2cncc3[nH]c(-c4n[nH]c5ccc(-c6cn[nH]c6)nc45)nc23)c1` [Compound 975, 3-(7-(3-Methoxylphenyl)-3H-imidazo[4,5-c]pyridin-2-yl)-5-(1H-pyrazol-4-yl)-1H-pyrazolo[4,3-b]pyridine], the inhibition at 10 µM [1] was 2%, the EC50 [1] was over 10 µM and the EC50 [2] was over 10 µM. The inhibition at 10 µM [2] was 0%.

For `COc1cccc(-c2cncc3[nH]c(-c4n[nH]c5ccc(-c6cncc(OC7CCNCC7)c6)nc45)nc23)c1` [Compound 980, 3-(7-(3-Methoxylphenyl)-3H-imidazo[4,5-c]pyridin-2-yl)-5-(5-(piperidin-4-yloxy)pyridin-3-yl)-1H-pyrazolo[4,3-b]pyridine], the inhibition at 10 µM [1] was 25.8%, the EC50 [1] was over 10 µM and the EC50 [2] was over 10 µM. It also gave an inhibition at 10 µM [2] of 34.1%.

`COc1cccc(-c2cncc3[nH]c(-c4n[nH]c5ccc(-c6cncc(O)c6)nc45)nc23)c1` [Compound 985, 5-(3-(7-(3-Methoxylphenyl)-3H-imidazo[4,5-c]pyridin-2-yl)-1H-pyrazolo[4,3-b]pyridin-5-yl)pyridin-3-ol] gave an inhibition at 10 µM [1] of 7.8%, an EC50 [1] of over 10 µM and an EC50 [2] of 1.34 µM.
